# Read-outs that look alike come from different tables or passages of the source. *1 amine or outer side, *2 acyl side, *3 side chain or, on linkers, in order; H or OH if unused. Where a SMILES comes first, the peptide text is derived from it. Side-chain parts run from the residue outwards. [ ]: non-standard residue; d: D form. The star is where a group is joined. αMePhe(2-F) = C[C@](N)(Cc1ccccc1F)C(=O)O; γGlu = O=C(O)[C@H](CCC(=O)[*:2])N[*:1]; C14 diacid = O=C(O)CCCCCCCCCCCCC(=O)*; αMeY = C[C@](N)(Cc1ccc(O)cc1)C(=O)O; αMeL = CC(C)C[C@](C)(N)C(=O)O; Orn = NCCC[C@H](N)C(=O)O; AEEA = NCCOCCOCC(=O)O; Aib = CC(C)(N)C(=O)O
# Assays:
# Assay type in all cases: cell-based
# [1] = target: T1, hGCGR (Homo sapiens, UniProt P47871); assay: Functional cAMP formation (HTRF) in HEK-293 clonal cells expressing hGCGR, 0.1% bovine casein, without or with 1.0% human serum albumin; details: geometric mean
# T1 construct: expressed in transfected cells
# T1 sequence (P47871 26-477): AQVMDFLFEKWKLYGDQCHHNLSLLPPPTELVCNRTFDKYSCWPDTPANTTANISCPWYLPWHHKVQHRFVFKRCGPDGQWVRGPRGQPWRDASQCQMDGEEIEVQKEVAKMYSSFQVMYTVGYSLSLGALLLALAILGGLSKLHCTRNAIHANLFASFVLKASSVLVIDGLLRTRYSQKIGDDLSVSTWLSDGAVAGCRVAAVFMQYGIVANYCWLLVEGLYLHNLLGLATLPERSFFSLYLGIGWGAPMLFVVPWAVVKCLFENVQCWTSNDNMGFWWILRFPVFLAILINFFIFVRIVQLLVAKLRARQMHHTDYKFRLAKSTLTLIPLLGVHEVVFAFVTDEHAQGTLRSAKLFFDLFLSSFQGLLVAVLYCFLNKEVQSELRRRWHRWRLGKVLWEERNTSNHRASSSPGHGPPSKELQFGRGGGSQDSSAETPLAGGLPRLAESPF
# How it was run: (§1)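 Cells were stimulated with peptide for 30 min at 37° C, then lysed in buffer carrying cAMP-d2 and anti-cAMP Eu3+-cryptate for a competitive HTRF read after at least 60 min at room temperature. The 665/620 nm ratio was converted to nM cAMP against a standard curve.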
# [2] = target: T2, hGIPR (Homo sapiens, UniProt P48546); assay: Functional cAMP formation (HTRF) in HEK-293 clonal cells expressing hGIPR, 0.1% bovine casein, without or with 1.0% human serum albumin; details: for EC50: geometric mean
# T2 construct: expressed in transfected cells
# T2 sequence (P48546 22-466): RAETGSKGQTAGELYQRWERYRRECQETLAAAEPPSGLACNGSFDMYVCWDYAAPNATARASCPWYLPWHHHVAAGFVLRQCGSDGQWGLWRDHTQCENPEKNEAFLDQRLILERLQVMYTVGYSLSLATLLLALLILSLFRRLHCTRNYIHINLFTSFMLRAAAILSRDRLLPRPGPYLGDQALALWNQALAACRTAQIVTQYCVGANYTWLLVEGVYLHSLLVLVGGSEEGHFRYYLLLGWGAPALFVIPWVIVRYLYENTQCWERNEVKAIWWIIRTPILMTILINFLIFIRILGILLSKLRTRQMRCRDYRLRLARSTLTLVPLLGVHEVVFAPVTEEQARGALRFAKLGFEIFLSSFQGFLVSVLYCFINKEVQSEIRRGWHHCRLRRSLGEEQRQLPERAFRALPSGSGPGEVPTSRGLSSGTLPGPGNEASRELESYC
# How it was run: as §1
# [3] = target: hGLP-1R (Homo sapiens, UniProt P43220); assay: Functional cAMP formation (HTRF) in HEK-293 clonal cells expressing hGLP-1R, 0.1% bovine casein, without or with 1.0% human serum albumin; parameters: expressed in transfected cells; details: for EC50: geometric mean
# Chain of hGLP-1R (P43220 24-463): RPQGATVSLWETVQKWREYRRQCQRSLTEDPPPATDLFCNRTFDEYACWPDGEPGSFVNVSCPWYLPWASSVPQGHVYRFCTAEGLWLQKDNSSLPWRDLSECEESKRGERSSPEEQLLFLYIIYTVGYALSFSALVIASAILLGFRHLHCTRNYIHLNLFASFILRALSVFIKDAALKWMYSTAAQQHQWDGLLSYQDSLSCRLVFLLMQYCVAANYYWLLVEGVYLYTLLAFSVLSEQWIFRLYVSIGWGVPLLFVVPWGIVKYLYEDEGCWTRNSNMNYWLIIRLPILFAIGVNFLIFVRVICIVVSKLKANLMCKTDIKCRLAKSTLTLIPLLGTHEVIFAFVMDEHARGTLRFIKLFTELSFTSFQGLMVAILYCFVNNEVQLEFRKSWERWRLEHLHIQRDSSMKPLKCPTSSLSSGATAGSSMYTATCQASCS
# How it was run: as §1
# [4] = 0.1% bovine casein and 1.0% human serum albumin, 37° C., read-out: hGCGR EC50, nM (SEM, n)
# [5] = cAMP, incubated at 37° C., 0.1% bovine casein (no human serum albumin), read-out: hGCGR EC50, nM (SEM, n)
# [6] = 0.1% bovine casein and 1.0% human serum albumin, 37° C., read-out: hGIPR EC50, nM (SEM, n)
# [7] = HEK293, percent of maximal response to GIP(1-42)NH2, 37° C., 0.1% bovine casein, arithmetic mean, read-out: hGIPR Emax, % ± SEM
# [8] = 0.1% bovine casein and 1.0% human serum albumin, 37° C., read-out: hGLP-1R EC50, nM (SEM, n)
# [9] = HEK293, 0.1% bovine casein and 1.0% human serum albumin, 37° C., percent of maximal response to GLP-1(7-36)NH2, read-out: hGLP-1R Emax, % ± SEM
# [10] = cAMP, incubated at 37° C., 0.1% bovine casein (no human serum albumin), read-out: hGLP-1R EC50, nM (SEM, n)
structure (smiles),measurement,setting,value
CC[C@H](C)[C@H](NC(=O)[C@H](CC(C)C)NC(=O)[C@](C)(Cc1ccc(O)cc1)NC(=O)[C@H](CCCCNC(=O)COCCOCCNC(=O)COCCOCCNC(=O)CC[C@H](NC(=O)CCCCCCCCCCCCC(=O)O)C(=O)O)NC(=O)[C@@H](NC(=O)[C@H](Cc1ccccc1)NC(=O)[C@H](CCC(=O)O)NC(=O)C(C)(C)NC(=O)[C@H](CCC(N)=O)NC(=O)[C@H](C)NC(=O)[C@H](CCCCNC(=O)COCCOCCNC(=O)COCCOCCNC(=O)CC[C@H](NC(=O)CCCCCCCCCCCCC(=O)O)C(=O)O)NC(=O)[C@H](CCCN)NC(=O)[C@H](CC(=O)O)NC(=O)[C@H](CC(C)C)NC(=O)[C@](C)(CC(C)C)NC(=O)[C@@H](NC(=O)[C@H](CO)NC(=O)[C@H](Cc1ccncc1)NC(=O)[C@H](CC(=O)O)NC(=O)[C@H](CO)NC(=O)[C@@H](NC(=O)[C@](C)(Cc1ccccc1F)NC(=O)[C@@H](NC(=O)CNC(=O)[C@H](CCC(=O)O)NC(=O)C(C)(C)NC(=O)[C@@H](N)Cc1ccc(O)cc1)[C@@H](C)O)[C@@H](C)O)[C@@H](C)CC)[C@@H](C)CC)C(=O)N[C@@H](CCC(=O)O)C(=O)NCC(=O)NCC(=O)N1CCC[C@H]1C(=O)N[C@@H](CO)C(=O)N[C@@H](CO)C(=O)NCC(=O)N[C@@H](C)C(=O)N1CCC[C@H]1C(=O)N1CCC[C@H]1C(=O)N1CCC[C@H]1C(=O)N[C@@H](CO)C(N)=O [Example 16],EC50,"[1]; hGCGR EC50, nM (SEM, n), 0.1% bovine casein and 1.0% human serum albumin, 37° C.",> 9950 nM
same,EC50,"[1]; hGCGR EC50, nM (SEM, n), cAMP, incubated at 37° C., 0.1% bovine casein (no human serum albumin)",> 9950 nM
same,Emax,"[2]; HEK293, read-out: hGIPR Emax, % ± SEM, 0.1% bovine casein and 1.0% human serum albumin, 37° C., percent of maximal response to GIP(1-42)NH2",91.5 ± 1.01%
same,EC50,"[2]; hGIPR EC50, nM (SEM, n), 0.1% bovine casein and 1.0% human serum albumin, 37° C.",0.625 nM
same,EC50,"[2]; hGIPR EC50, nM (SEM, n), cAMP, incubated at 37° C., 0.1% bovine casein (no human serum albumin)",0.0113 nM
same,Emax,"[3]; HEK293, read-out: hGLP-1R Emax, % ± SEM, 0.1% bovine casein and 1.0% human serum albumin, 37° C., percent of maximal response to GLP-1(7-36)NH2",98.3 ± 0.735%
same,EC50,"[3]; hGLP-1R EC50, nM (SEM, n), 0.1% bovine casein and 1.0% human serum albumin, 37° C.",9.06 nM
same,EC50,"[3]; hGLP-1R EC50, nM (SEM, n), cAMP, incubated at 37° C., 0.1% bovine casein (no human serum albumin)",0.245 nM
CC[C@H](C)[C@H](NC(=O)[C@H](CCCN)NC(=O)[C@H](CC(=O)O)NC(=O)[C@H](CC(C)C)NC(=O)[C@](C)(CC(C)C)NC(=O)[C@@H](NC(=O)[C@H](CO)NC(=O)[C@H](Cc1ccncc1)NC(=O)[C@H](CC(=O)O)NC(=O)[C@H](CO)NC(=O)[C@@H](NC(=O)[C@](C)(Cc1ccccc1F)NC(=O)[C@@H](NC(=O)CNC(=O)[C@H](CCC(=O)O)NC(=O)C(C)(C)NC(=O)[C@@H](N)Cc1ccc(O)cc1)[C@@H](C)O)[C@@H](C)O)[C@@H](C)CC)C(=O)N[C@@H](C)C(=O)N[C@@H](CCC(N)=O)C(=O)NC(C)(C)C(=O)N[C@@H](CCC(=O)O)C(=O)N[C@@H](Cc1ccccc1)C(=O)N[C@H](C(=O)N[C@@H](CCCCNC(=O)COCCOCCNC(=O)COCCOCCNC(=O)CC[C@H](NC(=O)CCCCCCCCCCCCC(=O)O)C(=O)O)C(=O)N[C@@](C)(Cc1ccc(O)cc1)C(=O)N[C@@H](CC(C)C)C(=O)N[C@H](C(=O)N[C@@H](CCC(=O)O)C(=O)NCC(=O)NCC(=O)N[C@@H](CCCCNC(=O)COCCOCCNC(=O)COCCOCCNC(=O)CC[C@H](NC(=O)CCCCCCCCCCCCC(=O)O)C(=O)O)C(=O)N[C@@H](CO)C(=O)N[C@@H](CO)C(=O)NCC(=O)N[C@@H](C)C(=O)N1CCC[C@H]1C(=O)N1CCC[C@H]1C(=O)N1CCC[C@H]1C(=O)N[C@@H](CO)C(N)=O)[C@@H](C)CC)[C@@H](C)CC [Example 71],EC50,[1]; [4],> 9950 nM
same,EC50,[1]; [5],> 9950 nM
same,EC50,[2]; [6],3.07 nM
same,Emax,[2]; [7],93.8 ± 3.59%
same,EC50,[3]; [8],43.7 nM
same,Emax,[3]; [9],100%
same,EC50,[3]; [10],0.246 nM
CC[C@H](C)[C@H](NC(=O)[C@H](CC(C)C)NC(=O)[C@](C)(Cc1ccc(O)cc1)NC(=O)[C@@H](CCC(=O)O)NC(=O)[C@@H](NC(=O)[C@H](Cc1ccccc1)NC(=O)[C@H](CCCCNC(=O)COCCOCCNC(=O)CC[C@H](NC(=O)CCCc1ccc(C(C)(C)C)cc1)C(=O)O)NC(=O)C(C)(C)NC(=O)[C@H](CCC(N)=O)NC(=O)[C@H](C)NC(=O)[C@H](CCCCNC(=O)COCCOCCNC(=O)CC[C@H](NC(=O)CCCc1ccc(C(C)(C)C)cc1)C(=O)O)NC(=O)[C@H](CCCN)NC(=O)[C@H](CC(=O)O)NC(=O)[C@H](CC(C)C)NC(=O)[C@](C)(CC(C)C)NC(=O)[C@@H](NC(=O)[C@H](CO)NC(=O)[C@H](Cc1ccncc1)NC(=O)[C@H](CC(=O)O)NC(=O)[C@H](CO)NC(=O)[C@@H](NC(=O)[C@](C)(Cc1ccccc1F)NC(=O)[C@@H](NC(=O)CNC(=O)[C@H](CCC(=O)O)NC(=O)C(C)(C)NC(=O)[C@@H](N)Cc1ccc(O)cc1)[C@@H](C)O)[C@@H](C)O)[C@@H](C)CC)[C@@H](C)CC)C(=O)N[C@@H](CCC(=O)O)C(=O)NCC(=O)NCC(=O)N1CCC[C@H]1C(=O)N[C@@H](CO)C(=O)N[C@@H](CO)C(=O)NCC(=O)N[C@@H](C)C(=O)N1CCC[C@H]1C(=O)N1CCC[C@H]1C(=O)N1CCC[C@H]1C(=O)N[C@@H](CO)C(N)=O [Example 207],EC50,[1]; [4],> 9950 nM
same,EC50,[1]; [5],> 9950 nM
same,EC50,[2]; [6],0.591 nM
same,Emax,"[2]; HEK293, 0.1% bovine casein and 1.0% human serum albumin, 37° C., percent of maximal response to GIP(1-42)NH2, read-out: hGIPR Emax, % ± SEM",97.9%
same,Emax,[2]; [7],96.2%
same,EC50,"[2]; cAMP, incubated at 37° C., 0.1% bovine casein (no human serum albumin), read-out: hGIPR EC50, nM (SEM, n)",0.019 nM
same,EC50,[3]; [8],2.98 nM
same,Emax,[3]; [9],112%
same,Emax,"[3]; HEK293, percent of maximal response to GLP-1(7-36)NH2, 37° C., 0.1% bovine casein, arithmetic mean, read-out: hGLP-1R Emax, % ± SEM",95.1%
same,EC50,[3]; [10],0.209 nM
CC[C@H](C)[C@H](NC(=O)[C@H](CCCN)NC(=O)[C@H](CC(=O)O)NC(=O)[C@H](CC(C)C)NC(=O)[C@](C)(CC(C)C)NC(=O)[C@@H](NC(=O)C(C)(C)NC(=O)[C@H](Cc1ccc(O)cc1)NC(=O)[C@H](CC(=O)O)NC(=O)[C@H](CO)NC(=O)[C@@H](NC(=O)[C@](C)(Cc1ccccc1F)NC(=O)[C@@H](NC(=O)CNC(=O)[C@H](CCC(=O)O)NC(=O)C(C)(C)NC(=O)[C@@H](N)Cc1ccc(O)cc1)[C@@H](C)O)[C@@H](C)O)[C@@H](C)CC)C(=O)N[C@@H](C)C(=O)N[C@@H](CCC(N)=O)C(=O)NC(C)(C)C(=O)N[C@@H](CCCCNC(=O)COCCOCCNC(=O)CC[C@H](NC(=O)CCCCCCCCCCCCC(=O)O)C(=O)O)C(=O)N[C@@H](Cc1ccccc1)C(=O)N[C@H](C(=O)N[C@H](CCC(=O)O)C(=O)N[C@@](C)(Cc1ccc(O)cc1)C(=O)N[C@@H](CC(C)C)C(=O)N[C@H](C(=O)N[C@@H](CCC(=O)O)C(=O)NCC(=O)NCC(=O)N1CCC[C@H]1C(=O)N[C@@H](CO)C(=O)N[C@@H](CO)C(=O)NCC(=O)N[C@@H](C)C(=O)N1CCC[C@H]1C(=O)N1CCC[C@H]1C(=O)N1CCC[C@H]1C(=O)N[C@@H](CO)C(=O)N[C@@H](CCCCNC(=O)COCCOCCNC(=O)CC[C@H](NC(=O)CCCCCCCCCCCCC(=O)O)C(=O)O)C(N)=O)[C@@H](C)CC)[C@@H](C)CC [Example 371] (H-Y[Aib]EGT[αMePhe(2-F)]TSDY[Aib]I[αMeL]LD[Orn]IAQ[Aib]K([AEEA-γGlu-C14 diacid])FI[dE][αMeY]LIEGGPSSGAPPPSK([AEEA-γGlu-C14 diacid])-NH2),EC50,"[1]; cAMP, 37° C., 0.1% bovine casein (no human serum albumin), read-out: hGCGR EC50, nM (SEM, n)",> 9950 nM
same,EC50,"[2]; cAMP, 37° C., 0.1% bovine casein (no human serum albumin), read-out: hGIPR EC50, nM (SEM, n)",0.0209 nM
same,Emax,"[3]; HEK293, cAMP, 37° C., 0.1% bovine casein, percent of maximal response to GLP-1(7-36)NH2, arithmetic mean, read-out: hGLP-1R Emax, % ± SEM",112%
same,EC50,"[3]; cAMP, 37° C., 0.1% bovine casein (no human serum albumin), read-out: hGLP-1R EC50, nM (SEM, n)",0.363 nM

# From US20230265151A1, “GIP/GLP1 CO-AGONIST COMPOUNDS” (priority 2020, published 2023)
